# pIC50: −log10 of the molar value.
# What was measured:
# β-lactamases = conditions: serve as excellent substrates of the β-lactamases; ref 27 (Fisher et al.); cited from earlier work
# PDC-3 β-lactamase = PDC-3 β-lactamase (Pseudomonas aeruginosa, UniProt P24735, T105A); test: Inhibition of nitrocefin hydrolysis; format: biochemical
# [1] = test system: ATCC35218 E. coli blaTEM-1; test: Disc diffusion susceptibility testing; conditions: 10 μg of ampicillin and each inhibitor, MH agar, 37 °C, 18 h
compound,measurement,setting,value
"CC1(C)[C@H](C(=O)O)N2C(=O)[C@@H](NC(=O)Cc3ccccc3)[C@H]2S1(=O)=O [compound 19, penicillin G sulfone]",β-Lactamase inhibition,β-lactamases,poor β-lactamase inhibitors
"O=C(O)[C@H]1/C(=C/CO)O[C@@H]2CC(=O)N21 [Clavulanic acid, clavulanic acid]",pIC50,PDC-3 β-lactamase,< 4.00
"CC1(C)S[C@@H]2[C@H](NC(=O)[C@H](N)c3ccccc3)C(=O)N2[C@H]1C(=O)O [Ampicillin, ampicillin]",Zone diameter,[1],6 mm

# Reference: PMC3319978 (Biochemical Pharmacology, 2011)
